Assay results from patent publication US20060004051A1, “Compounds” (priority 2002, published 2006).
pIC50: −log10 of the molar value.

Columns and labels:
[1] = target: T1, recombinant GST-ALK5 (residues 198-503) (Homo sapiens, UniProt P36897); experiment: Alk5 fluorescence polarization assay; assay type: binding; details: rhodamine green-labelled ligand 1 nM, ALK5 10 nM, read-out: ALK5 receptor modulator activity (IC50)
T1 construct: recombinant GST-ALK5 (residues 198-503)
T1 sequence (P36897 198-503): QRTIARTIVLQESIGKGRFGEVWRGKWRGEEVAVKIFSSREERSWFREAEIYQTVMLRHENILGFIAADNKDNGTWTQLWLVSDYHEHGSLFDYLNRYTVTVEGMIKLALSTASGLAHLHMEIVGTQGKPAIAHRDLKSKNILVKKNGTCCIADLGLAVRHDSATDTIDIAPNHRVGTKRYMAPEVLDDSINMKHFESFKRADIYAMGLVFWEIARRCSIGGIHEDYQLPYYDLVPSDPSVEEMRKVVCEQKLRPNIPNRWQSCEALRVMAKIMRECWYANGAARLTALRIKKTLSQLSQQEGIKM
Description: Assay 2 (Alk5 Fluorescence Polarization Assay)
Kinase inhibitor compounds conjugated to fluorophores, can be used as fluorescent ligands to monitor ATP competitive binding of other compounds to a given kinase. The increase in depolarization of plane polarized light, caused by release of the bound ligand into solution, is measured as a polarization/anisotropy value. This protocol details the use of a rhodamine green-labelled ligand for assays using recombinant GST-ALK5 (residues 198-503).
Assay buffer components: 62.5 mM Hepes pH 7.5 (Sigma H-4034), 1 mM DTT (Sigma D-0632), 12.5 mM MgCl2 (Sigma M-9272), 1.25 mM CHAPS (Sigma C-3023). […]
ALK5 was added to assay buffer containing the above components and 1 nM of the rhodamine green-labelled ligand so that the final ALK5 concentration was 10 nM based on active site titration of the enzyme. […] The plates were read immediately on a LJL Acquest fluorescence reader (Molecular Devices, serial number AQ1048) with excitation, emission, and dichroic filters of 485 nm, 530 nm, and 505 nm, respectively. The fluorescence polarization for each well was calculated by the Acquest reader and then imported into curve fitting software for construction of concentration response curves. The normalized response was determined relative to the high controls (1 μl DMSO in column 12, rows A-D) and the low controls (1 μl of control compound in column 12, rows E-H). […]

[2] = tested on: TGF-β signalling (PAI-1 promoter linked to firefly luciferase) in HepG2 cells; experiment: Cellular transcriptional assay (PAI-1 promoter luciferase reporter, TGF-β stimulated); details: for pIC50: Homo sapiens, HepG2, read-out: TGF-β cellular activity (IC50)
Description: The assay was performed in HepG2 cells stably transfected with the PAI-1 promoter (known to be a strong TGF-β responsive promoter) linked to a luciferase (firefly) reporter gene. The compounds were selected on their ability to inhibit luciferase activity in cells exposed to TGF-β. In addition, cells were transfected with a second luciferase (Renilla) gene which was not driven by a TGF-β responsive promoter and was used as a toxicity control.
96 well microplates were seeded, using a multidrop apparatus, with the stably transfected cell line at a concentration of 35000 cells per well in 200 μl of serum-containing medium. These plates were placed in a cell incubator.
18 to 24 hours later (Day 2), cell-incubation procedure was launched. Cells were incubated with TGF-β and a candidate compound at concentrations in the range 50 nM to 10 μM (final concentration of DMSO 1%). The final concentration of TGF-β (rhTGFβ-1) used in the test was 1 ng/mL. […] The final volume of the test reaction was 150 μl. Each well contained only one candidate compound and its effect on the PAI-1 promoter was monitored.
Columns 11 and 12 were employed as controls. Column 11 contained 8 wells in which the cells were incubated in the presence of TGF-β, without a candidate compound. Column 11 was used to determine the ‘reference TGF-β induced firefly luciferase value’ against which values measured in the test wells (to quantify inhibitory activity) were compared. In wells A12 to D12, cells were grown in medium without TGF-β. […]
12 to 18 hours later (day 3), the luciferase quantification procedure was launched. […] Following agitation (15 to 30 mins), luciferase activities of the plates were read in a dual-injector luminometer (BMG lumistar). For this purpose, 50 μl of luciferase assay reagent and 50 μl of ‘Stop & Glo’ buffer were injected sequentially to quantify the activities of both luciferases. […] For each of the compounds tested, a concentration response curve was constructed from which an IC50 value was determined graphically.

SMILES | melting point | further results
Nc1nc(-c2ccccn2)c(-c2ccnc(-c3ccc(N4CCOCC4)cc3)c2)s1 [Example 1] | 246 °C | 
Cc1cccc(-c2nc(N)sc2-c2ccnc(-c3ccc(C(=O)N4CCOCC4)cc3)c2)n1 [Example 5, 5-{2-[4-((morpholin-4-yl)carbonyl)phenyl]pyridin-4-yl]-4-(6-methylpyridin-2-y)-1,3-thiazol-2-amine] | 158 to 160 °C | 
Cc1cccc(-c2nc(N)sc2-c2ccnc(-c3ccc(N4CCOCC4)cc3)c2)n1 [Example 4, 5-{2-[4-(morpholin-4-yl)phenyl]pyridinyl-4-yl}-4-(6-methylpyridin-2-yl)-1,3-thiazol-2-amine] | 250 to 252 °C | 
Cc1cccc(-c2nc(N)sc2-c2ccnc(-c3ccc(CN4CCOCC4)cc3)c2)n1 [Example 7, 5-{2-[4-((morpholin-4-yl)methyl)phenyl]pyridin-4-yl}-4-(6-methylpyridin-2-yl)-1,3-thiazol-2-amine] | 190 to 192 °C | 
Cc1cccc(-c2sc(N)nc2-c2ccnc(-c3ccc(N4CCOCC4)cc3)c2)n1 [Example 20, 4-[2-(4-(morpholin-4-yl)phenyl)pyridin-4-yl]-5-[6-methylpyridin-2-yl]-1,3-thiazol-2-amine] | 246 °C | 
Nc1nc(-c2ccnc(-c3ccc(N4CCOCC4)cc3)c2)c(-c2ccccn2)s1 [Example 27, 4-[2-(4-(morpholin-4-yl)phenyl)pyridin-4-yl]-5-[pyridin-2-yl]-1,3-thiazol-2-amine] | 276 °C | 
Cc1cccc(-c2sc(N)nc2-c2ccnc(-c3ccc(OCCN4CCCC4)cc3)c2)n1 [Example 21, 4-[2-(4-(2-(pyrolidin-1-yl)-ethoxy)phenyl)pyridin-4-yl]-5-[6-methylpyridin-2-yl]-1,3-thiazol-2-amine] | 150 °C | 
Cc1cccc(-c2sc(N)nc2-c2ccnc(-c3ccc(CN4CCOCC4)cc3)c2)n1 [Example 19, 4-[2-(4-((morpholin-4-yl)methyl)phenyl)pyridin-4-yl]-5-[6-methylpyridin-2-yl]-1,3-thiazol-2-amine] | 236 °C | 
Cc1cccc(-c2sc(N)nc2-c2ccnc(-c3ccc(CN4CCCC4)cc3)c2)n1 [Example 24, 4-[2-(4-((pyrrolidin-1-yl)methyl)phenyl)pyridin-4-yl]-5-[6-methylpyridin-2-yl]-1,3-thiazol-2-amine] | 200 °C | 
Cc1cccc(-c2nc(N)sc2-c2ccnc(-c3ccc(OCc4cn(C)cn4)cc3)c2)n1 [Example 12, 5-{2-[4-((1-methyl-imidazol-4-yl)methyloxy)-phenyl]pyridin-4-yl}-4-(6-methylpyridin-2-yl)-1,3-thiazol-2-amine] | 226 to 228 °C | 
Cc1cccc(-c2sc(N)nc2-c2ccnc(-c3ccc(C(=O)N4CCOCC4)cc3)c2)n1 [Example 17] | 246 °C | 
Cc1cccc(-c2sc(N)nc2-c2ccnc(-c3ccc(Cl)cc3)c2)n1 [Example 13, 4-[2-(4-chlorophenyl)pyridin-4-yl]-5-(6-methylpyridin-2-yl]-1,3-thiazol-2-amine] | 222 °C | 
Nc1nc(-c2ccnc(-c3ccc(C(=O)NC4CCOCC4)cc3)c2)c(-c2ccccn2)s1 [Example 26, 4-[2-(4-((tetrahydropyran-4-yl)aminocarbonyl)phenyl)pyridin-4-yl]-5-[pyridin-2-yl]-1,3-thiazol-2-amine] | 268 °C | 
Cc1cccc(-c2sc(N)nc2-c2ccnc(-c3ccc(OCC(=O)N4CCOCC4)cc3)c2)n1 [Example 23, 4-[2-(4-((morpholin-4-yl)carbonylmethyloxy)phenyl)pyridin-4-yl]-5-[6-methylpyridin-2-yl]-1,3-thiazol-2-amine] | 172 °C | 
Cc1cccc(-c2sc(N)nc2-c2ccnc(-c3ccc(OCC(N)=O)cc3)c2)n1 [Example 22, 4-[2-(4-(aminocarbonylmethyloxy)phenyl)pyridin-4-yl]-5-[6-methylpyridin-2-yl]-1,3-thiazol-2-amine] | 191 °C | 
Cc1cccc(-c2nc(N)sc2-c2ccnc(-c3ccc(OCCN4CCCC4)cc3)c2)n1 [Example 11, 5-{2-[4-(2-(pyrrolidin-1-yl)-ethoxy)-phenyl]pyridin-4-yl}-4-(6-methylpyridin-2-yl)-1,3-thiazol-2-amine] | 176 to 178 °C | 
Cc1cccc(-c2nc(N)sc2-c2ccnc(-c3ccc(C(=O)NC4CCOCC4)cc3)c2)n1 [Example 6, 5-{2-[4((tetrahydropyran-4-yl)-aminocarbonyl)-phenyl]pyridin-4-yl}-4-(6-methylpyridin-2-yl)-1,3-thiazol-2-amine] | 230 to 232 °C | 
Cc1cccc(-c2nc(N)sc2-c2ccnc(-c3ccc(OC(F)(F)F)cc3)c2)n1 [Example 9, 5-{2-[4-trifluoromethoxyphenyl]pyridin-4-yl}-4-(6-methylpyridin-2-yl)-1,3-thiazol-2-amine] | 222 to 224 °C | 
CCN1CCN(c2ccc(-c3cc(-c4sc(N)nc4-c4cccc(C)n4)ccn3)cc2)CC1 [Example 3] | 230 to 232 °C | pIC50 [1]: 7.85; pIC50 [2]: 7.54
Cc1cccc(-c2sc(N)nc2-c2ccnc(-c3ccc(OC(F)(F)F)cc3)c2)n1 [Example 14, 4-[2-(4-trifluoromethoxyphenyl)pyridin-4-yl]-5-[6-methylpyridin-2-yl]-1,3-thiazol-2-amine] | 232 °C | 
Cc1cccc(-c2nc(N)sc2-c2ccnc(-c3ccc(S(C)(=O)=O)cc3)c2)n1 [Example 2, 5-{2-[4-(methanesulfonyl)phenyl]pyridin-4-yl}-4-(6-methylpyridin-2-yl)-1,3-thiazol-2-amine] | 236 to 238 °C | 
O=C1C=CCC1 [CPO, Cyclopentenone, reference compound] |  | firefly and renilla luciferase activities (toxicity control) ([2]; 500 μM CPO with TGF-β, relative to TGF-β only): around 50%
COc1ccc(-c2cc(-c3sc(N)nc3-c3cccc(C)n3)ccn2)cc1 [Example 8, 5-{2-[4methoxyphenyl]pyridin-4-yl}-4-(6methylpyridin-2-yl)-1,3-thiazol-2-amine] | 188 to 190 °C | 
Cc1cccc(-c2sc(N)nc2-c2ccnc(-c3ccc(CN(C)C)cc3)c2)n1 [Example 25, 4-[2-(4-((dimethylamino)methyl)phenyl)pyridin-4-yl]-5-[6-methylpyridin-2-yl]-1,3-thiazol-2-amine] | 210 °C | pIC50 [1]: 7.54; pIC50 [2]: 7.51
CCN1CCN(C(=O)c2ccc(-c3cc(-c4nc(N)sc4-c4cccc(C)n4)ccn3)cc2)CC1 [Example 18] | 224 °C | 
